Values quoted from earlier work as cited in article PMC8198792, “Prediction of Anticancer Peptides with High Efficacy and Low Toxicity by Hybrid Model Based on 3D Structure of Peptides” (International Journal of Molecular Sciences, 2021).
Like-named read-outs stand apart in the source and are kept apart here.

Legend:
erythrocytes = conditions: cited from earlier work
Text: Supplement ijms-22-05630-s001.zip/Hemloytic Peptides(seguence).xlsx, sheet "HD1" | column: Activity || Supplement ijms-22-05630-s001.zip/Hemloytic Peptides(seguence).xlsx, sheet "HD2" | column: Activity || Supplement ijms-22-05630-s001.zip/Hemloytic Peptides(seguence).xlsx, sheet "HD3" | column: Activity

cancer cell lines = system: cancer cell lines; set-up: method as in 6 sources, ref CancerPPD [45] and SATPdb ||| ref CancerPPD/SATPdb ||| ref CancerPPD, SATPdb, Swissprot (PDB) ||| ref CancerPPD/SATPdb/Swissprot(PDB) ||| ref CancerPPD / SATPdb ||| ...; conditions: cited from earlier work
Text: Supplement ijms-22-05630-s001.zip/ACPs(seguence).xlsx, sheet "D1" | column: Activity || Supplement ijms-22-05630-s001.zip/ACPs(seguence).xlsx, sheet "D2" | column: Activity || Supplement ijms-22-05630-s001.zip/ACPs(seguence).xlsx, sheet "D3" | column: Activity || (+ 2 further places)

[1] = hemolytic peptides dataset HD3, 1 = hemolytic (positive set), 0 = non-hemolytic (negative set), labels taken from databases, ref Hemolytik/SATPdb
[2] = ACPs dataset D3 (supplement sheet "D3"), 1 = ACP, 0 = non-ACP, ref CancerPPD [45] and SATPdb
[3] = ACPs dataset D4 (sheet "D4"), label 1 = ACP (CancerPPD ID), 0 = non-ACP (non-anticancer AMP, SATPdb ID), ref CancerPPD [45] and SATPdb
[4] = ACPs dataset D5 (sheet "D5"), label 1 = ACP (positive set), 0 = non-ACP (negative set), ref CancerPPD [45] and SATPdb
[5] = ACPs dataset D1, 1 = ACP (positive), 0 = non-ACP (negative), label taken from databases, ref CancerPPD [45] and SATPdb
[6] = ACPs dataset D4 (sheet "D4"), label 1 = ACP, experimentally validated ACPs, ref CancerPPD [45] and SATPdb
[7] = ACPs dataset D5 (sheet "D5"), label 1 = ACP (positive set), sequences with CancerPPD/SATPdb ID, ref CancerPPD, SATPdb
[8] = ACPs dataset sheet D2, 1 = ACP (CancerPPD/SATPdb ID), 0 = non-ACP (Swissprot/PDB ID), ref CancerPPD, SATPdb, Swissprot (PDB)
[9] = ACPs dataset D2 (supplement ACPs(seguence).xlsx, sheet D2), dataset label 1/0 (ACP / non-ACP), entries identified by Swissprot(PDB ID), ref CancerPPD/SATPdb/Swissprot(PDB)
[10] = ACPs dataset D5, sheet "D5", label 1 = ACP, 0 = non-ACP, ref CancerPPD [45] and SATPdb
[11] = ACPs dataset D1, label 1 = ACP, 0 = non-ACP (non-anticancer AMPs from SATPdb), ref CancerPPD/SATPdb
[12] = ACPs dataset D4 (sheet "D4"), label 1 = ACP, 0 = non-ACP, ref CancerPPD / SATPdb

| Substance | Activity (cancer cell lines; [5]) | Activity (cancer cell lines; [6]) | Activity (cancer cell lines; [7]) | Activity (cancer cell lines; [8]) | also measured |
| --- | --- | --- | --- | --- | --- |
| KSLRRVWRSWR [satpdb26460] |  |  |  |  | Activity (erythrocytes): 0 |
| SFFKKAAHVGKHVGKAALTHYL [satpdb17678] |  |  |  |  | Activity (erythrocytes): 0 |
| VKLKVyPLKVKlyP [satpdb11392] |  |  |  |  | Activity (erythrocytes; Hemolytic peptides dataset HD2, label 1 = hemolytic, 0 = non-hemolytic, ref Hemolytik/SATPdb): 1; Activity (erythrocytes; [1]): 1 |
| WYSEMKRNVQRLERAIEE [satpdb11990] |  |  |  |  | Activity (erythrocytes): 1 |
| IPHAVKAISDLI [satpdb15419] |  |  |  |  | Activity (erythrocytes): 0 |
| KKKKKKLLFAAWAAFAA [compound 1152] |  |  |  |  | Activity (erythrocytes): 1 |
| DANVENGEDAEDLTDKFIGLMG [satpdb17330] |  |  |  |  | Activity (erythrocytes): 0; Activity (dataset HD1, hemolytic 1 / non-hemolytic 0) (erythrocytes): 0 |
| GWANTLKNVAGGLCKITGAA [satpdb14607] |  |  |  |  | Activity (erythrocytes): 1; Activity (dataset HD1, hemolytic 1 / non-hemolytic 0) (erythrocytes): 1 |
| GCRFCCNCCPNMSGCGVCCRF [satpdb21740] |  |  |  |  | Activity (erythrocytes; [1]): 0; Activity (dataset HD1, hemolytic 1 / non-hemolytic 0) (erythrocytes; natural hemolytic peptide dataset HD1, label collected from databases, ref Hemolytik [49], SATPdb [34]): 0 |
| KKKKKKAAFALWLAFAA [compound 1148] |  |  |  |  | Activity (erythrocytes): 1 |
| PPPEE [compound 1426] |  |  |  |  | Activity (cancer cell lines; [2]): 1; Activity (cancer cell lines; [3]): 1; Activity (cancer cell lines; [4]): 1 |
| PRFWEYWLRAME [compound 4586] | 1 | 1 | 1 | 1 |  |
| MLQNSAVLLLLVISASA [satpdb10067] | 1 | 1 | 1 | 1 |  |
| FAKKFAKKFKKFAKKFAKFAFAF [compound 1910] |  | 1 | 1 |  | Activity (cancer cell lines; [2]): 1 |
| GLFAVIKKVAKVIKKL [compound 4138] |  |  |  |  | Activity (cancer cell lines; [2]): 1; Activity (cancer cell lines; [3]): 1; Activity (cancer cell lines; [4]): 1 |
| FLKDHRISTFKNWPF [satpdb15356] | 1 | 1 | 1 | 1 |  |
| MPCSCKKYCDPWEVIDGSCGLFNSKYICCREK [1EWS NMR - A 1-32] |  |  |  | 0 | Activity (cancer cell lines; [4]): 0 |
| GKWMSLLKHIWK [compound 3655] |  |  |  |  | Activity (cancer cell lines; [2]): 1; Activity (cancer cell lines; [3]): 1; Activity (cancer cell lines; [4]): 1 |
| GLLGLLGSVVSHVVPAIVGHF [compound 4416] | 1 | 1 | 1 | 1 |  |
| GLFDVIAKVASVIKKL [compound 4093] |  |  |  |  | Activity (cancer cell lines; [2]): 1; Activity (cancer cell lines; [3]): 1; Activity (cancer cell lines; [4]): 1 |
| GKWMSLLKKILK [compound 3651] |  |  |  |  | Activity (cancer cell lines; [2]): 1; Activity (cancer cell lines; [3]): 1; Activity (cancer cell lines; [4]): 1 |
| FAKLA [compound 1859] |  | 1 | 1 |  | Activity (cancer cell lines; [2]): 1 |
| FHVPDDRPCINPGRCPLVPDATCTFVCKAADNDFGYECQHVWTFEGQRVGCYA [5MRV X-ray 1.85,C,1-53] |  |  |  |  | Activity (cancer cell lines; [9]): 0; Activity (cancer cell lines; [10]): 0 |
| FDVNSHTTPCGPVTCSGAQMCEVDKCVCSDLHCKVKCEHGFKKDDNGCEYACICADAPQ [1EJA X-ray 2.70 B 1-59] |  |  |  |  | Activity (cancer cell lines; [9]): 0; Activity (cancer cell lines; [10]): 0 |
| PEWFKCRRWQWRMKKLGA [compound 1604] | 1 | 1 | 1 | 1 |  |
| LHCPALVTYNTDTFESMPNPEGRYTFGASCV [satpdb27573] | 1 | 1 | 1 | 1 |  |
| FAKKLAKLAKKLLAL [compound 1790] |  | 1 | 1 |  | Activity (cancer cell lines; [2]): 1 |
| KWCFCVCYRGICYCRCRG [satpdb12871] |  |  |  |  | Activity (cancer cell lines; [11]): 0; Activity (cancer cell lines; [12]): 0 |

| Substance | Activity (cancer cell lines; [5]) | Activity (cancer cell lines; [6]) | Activity (cancer cell lines; [7]) | Activity (cancer cell lines; [8]) | also measured |
| --- | --- | --- | --- | --- | --- |
| ETFADWWKLLAE [compound 5061] | 1 | 1 | 1 | 1 |  |
| FVQWFSKFLGRIL [6GS5 NMR - A 1-13] |  |  |  |  | Activity (cancer cell lines; [4]): 0 |
| HFLLTLKNLAKKIL [satpdb10120] |  |  |  |  | Activity (cancer cell lines; [2]): 0; Activity (cancer cell lines; [12]): 0; Activity (cancer cell lines; [10]): 0 |
| PIEVNDDCMACEACVEICPDVFEMNEEGDKAVVINPDSDLDCVEEAIDSCPAEAIVRS [1F2G;1FXD X-ray 1.70 A 1-58] |  |  |  |  | Activity (cancer cell lines; [9]): 0; Activity (cancer cell lines; [10]): 0 |
| GLMDTIKGVAKTVAASWLDKLKCKITGC [compound 4362] | 1 | 1 | 1 | 1 |  |
| GKWMSLLKHWLK [compound 3656] |  |  |  |  | Activity (cancer cell lines; [2]): 1; Activity (cancer cell lines; [3]): 1; Activity (cancer cell lines; [4]): 1 |
| FLKLLKKLAAKLF [compound 1005] | 1 | 1 | 1 | 1 |  |
| TKPRKTKPRKTKPRKTKPR [compound 5055] | 1 | 1 | 1 | 1 |  |
| KWFKKIPKFLHLLKKF [compound 1120] |  |  |  |  | Activity (cancer cell lines; [2]): 1; Activity (cancer cell lines; [3]): 1; Activity (cancer cell lines; [4]): 1 |
| WDLVVVSAGVAEVGV [satpdb12938] | 1 | 1 | 1 | 1 |  |
| GLFDIVKKIAGHIVSSI [compound 1297] |  |  |  |  | Activity (cancer cell lines; [2]): 1; Activity (cancer cell lines; [3]): 1; Activity (cancer cell lines; [4]): 1 |
| GGLKKLGKKLEGAGKRVFNAAEKALPVVAGAKALG [satpdb11024] | 0 |  |  |  | Activity (cancer cell lines; [3]): 0 |
| GIPCAESCVWIPCTVTALLGCSCSNKVCYN [satpdb12637] |  |  |  |  | Activity (cancer cell lines; [11]): 0; Activity (cancer cell lines; [3]): 0 |
| MNQGKIWTVVPPAFGLPLMLGAVAITALLVHAAVLTHTTWYAAFLQGGVKKAA [1IJD X-ray 3.00 A/C/E 1-53] |  |  |  |  | Activity (cancer cell lines; [9]): 0; Activity (cancer cell lines; [10]): 0 |
| MEPECNLNCTD [satpdb10075] | 1 | 1 | 1 | 1 |  |
| GILNTIKSIASKLKRKAK [satpdb10259] | 0 |  |  |  | Activity (cancer cell lines; [3]): 0 |
| TFRAFLSSRLQDLYSIVRRADRAAV [compound 4202] | 1 | 1 | 1 | 1 |  |
| GDVIDTDRDIDR [satpdb14246] | 1 | 1 | 1 | 1 |  |
| ALWKTMLKKLGTMALHAGKAALGAAADTISQGTQ [compound 1708] | 1 | 1 | 1 | 1 |  |
| DGVKLCDVPSGTWSGHCGSSSKCSQQCKDREHFAYGGACHYQFPSVKCFCKRQC [2N2Q NMR - A 1-54] |  |  |  |  | Activity (cancer cell lines; [9]): 0; Activity (cancer cell lines; [10]): 0 |
| SYSMEHFRWGKPV [2IQP model - B 1-13] |  |  |  | 0 | Activity (cancer cell lines; [4]): 0 |
| GSIPCAESCVYIPCITGIAGCSCKNKVCYYN [satpdb12154] |  |  |  |  | Activity (cancer cell lines; [11]): 0; Activity (cancer cell lines; [3]): 0 |
| KRRREKQRPCDKPRR [satpdb15198] | 1 | 1 | 1 | 1 |  |
| NKWKKILGKIIKVVK [compound 3497] |  |  |  |  | Activity (cancer cell lines; [2]): 1; Activity (cancer cell lines; [3]): 1; Activity (cancer cell lines; [4]): 1 |
| RICPRIWMECKRDSDCMAQCICVDGHCG [1F2S X-ray 1.79 I 1-28] |  |  |  | 0 | Activity (cancer cell lines; [4]): 0 |
| AAPFLECQGRQGTCHFFAN [satpdb18859] | 1 | 1 | 1 | 1 |  |
| GIPCGESCVWIPCISAAIGCSCKNKVCYRN [satpdb12462] |  |  |  |  | Activity (cancer cell lines; [11]): 0; Activity (cancer cell lines; [3]): 0 |
